From ChEMBL document CHEMBL1201862, “PubChem BioAssay data set” (2004)
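96-well plates; 48 h exposure; 5 concentrations. Endpoints by linear interpolation between flanking doses. Not reached: highest tested concentration assigned. GI50: concentration for 50% inhibition of growth.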 Calls of active or inactive are those of the source. Rule as the data show it: active = GI50 up to about 1.1 µM and inactive = higher.

What was measured:
Assay in all cases: NCI tumour cell line growth inhibition, 48 h
UACC-62 = system: UACC-62
PC-3 = system: PC-3
SR = system: SR
HOP-62 = system: HOP-62
NCI-H460 = system: NCI-H460
SK-MEL-5 = system: SK-MEL-5
A498 = system: A498
MOLT-4 = system: MOLT-4
CCRF-CEM = system: CCRF-CEM
UO-31 = system: UO-31
CAKI-1 = system: CAKI-1
A549 = system: A549
HL-60 = system: HL-60
NCI-H522 = system: NCI-H522
MDA-MB-231 = system: MDA-MB-231
SF-268 = system: SF-268
HCT-116 = system: HCT-116
M14 = system: M14
Hs-578T = system: Hs-578T
RPMI-8226 = system: RPMI-8226

SMILES	GI50 (UACC-62)	GI50 (PC-3)	GI50 (SR)	GI50 (HOP-62)	GI50 (NCI-H460)	GI50 (SK-MEL-5)	GI50 (A498)	GI50 (MOLT-4)	GI50 (CCRF-CEM)	GI50 (UO-31)	GI50 (CAKI-1)	GI50 (A549)	GI50 (HL-60)	GI50 (NCI-H522)	GI50 (MDA-MB-231)	GI50 (SF-268)	GI50 (HCT-116)	GI50 (M14)	GI50 (Hs-578T)	GI50 (RPMI-8226)
Cc1cc(C)c(-n2c(-c3ccc(Br)cc3)cs/c2=N\N=C2C=C(C(C)(C)C)C(=O)C(C(C)(C)C)=C2)c(C)c1	> 81.1 µM (inactive)	> 100 µM (inactive)	> 100 µM (inactive)	32.7 µM (inactive)	> 100 µM (inactive)	> 100 µM (inactive)	31.3 µM (inactive)	> 100 µM (inactive)	> 100 µM (inactive)	> 100 µM (inactive)	> 100 µM (inactive)	> 100 µM (inactive)	> 100 µM (inactive)	> 100 µM (inactive)	55.3 µM (inactive)	69.8 µM (inactive)	> 76 µM (inactive)	> 100 µM (inactive)	15.3 µM (inactive)	> 100 µM (inactive)
O[C@@H]1C=C[C@]23CCN(Cc4cc5c(cc42)OCO5)[C@@H]3C1	> 100 µM (inactive)	45.2 µM (inactive)	67.8 µM (inactive)	92 µM (inactive)	42.7 µM (inactive)	> 100 µM (inactive)	> 100 µM (inactive)	61.1 µM (inactive)	48.9 µM (inactive)	48.2 µM (inactive)	26.8 µM (inactive)	46.6 µM (inactive)	> 100 µM (inactive)	82.4 µM (inactive)	58.2 µM (inactive)	> 100 µM (inactive)	42.8 µM (inactive)	> 100 µM (inactive)	> 100 µM (inactive)	50.7 µM (inactive)
O=C(OCCNC(=O)N1CC1)OCCNC(=O)N1CC1	> 10 µM (inactive)	> 10 µM (inactive)	> 10 µM (inactive)	> 10 µM (inactive)	> 10 µM (inactive)	> 10 µM (inactive)	> 10 µM (inactive)	> 10 µM (inactive)	> 10 µM (inactive)	> 10 µM (inactive)	> 10 µM (inactive)	> 10 µM (inactive)	> 10 µM (inactive)	> 10 µM (inactive)	> 10 µM (inactive)	> 10 µM (inactive)	> 10 µM (inactive)	> 10 µM (inactive)	> 10 µM (inactive)	> 10 µM (inactive)
C[N+](C)(C)CC1CCCCCCCCCCC1=O (stereo not drawn)	> 100 µM (inactive)	> 100 µM (inactive)	> 100 µM (inactive)	39.4 µM (inactive)	> 100 µM (inactive)	> 100 µM (inactive)	> 100 µM (inactive)	> 100 µM (inactive)	> 100 µM (inactive)	> 100 µM (inactive)	> 100 µM (inactive)	> 100 µM (inactive)	> 100 µM (inactive)	> 100 µM (inactive)	> 100 µM (inactive)	> 100 µM (inactive)	> 100 µM (inactive)	> 100 µM (inactive)	> 100 µM (inactive)	> 100 µM (inactive)
Cc1cc(C)c(C2=NOC(c3ccccc3)(c3cc(=O)n(-c4ccccc4)s3)O2)c(C)c1 (stereo not drawn)	23.2 µM (inactive)	30.9 µM (inactive)	89.7 µM (inactive)	33.2 µM (inactive)	43.1 µM (inactive)	74 µM (inactive)	> 100 µM (inactive)	41.9 µM (inactive)	23.8 µM (inactive)	20.8 µM (inactive)	17.2 µM (inactive)	29.5 µM (inactive)	22.1 µM (inactive)	17.5 µM (inactive)	30.8 µM (inactive)	44.2 µM (inactive)	> 100 µM (inactive)	27 µM (inactive)	52.6 µM (inactive)	37 µM (inactive)
CCOC(=O)CCC(NC(=O)N1CCN(c2c(C)nc(C)nc2O)CC1)C(=O)OCC (stereo not drawn)	> 100 µM (inactive)	> 100 µM (inactive)	> 100 µM (inactive)	> 100 µM (inactive)	> 100 µM (inactive)	–	> 100 µM (inactive)	> 100 µM (inactive)	> 100 µM (inactive)	> 100 µM (inactive)	> 100 µM (inactive)	> 100 µM (inactive)	> 100 µM (inactive)	> 100 µM (inactive)	> 100 µM (inactive)	> 100 µM (inactive)	> 100 µM (inactive)	> 100 µM (inactive)	> 100 µM (inactive)	> 100 µM (inactive)
CCNCC(O)COc1ccc2c(c1)[n+]([O-])nc(N)[n+]2[O-] (stereo not drawn)	18 µM (inactive)	24.7 µM (inactive)	45.5 µM (inactive)	23.5 µM (inactive)	> 10 µM (inactive)	24.8 µM (inactive)	27.8 µM (inactive)	14.5 µM (inactive)	19 µM (inactive)	> 100 µM (inactive)	26.9 µM (inactive)	24.2 µM (inactive)	43.1 µM (inactive)	12.6 µM (inactive)	> 100 µM (inactive)	31.3 µM (inactive)	50.2 µM (inactive)	40.7 µM (inactive)	54.6 µM (inactive)	61.9 µM (inactive)
CC1=NC(=Cc2ccc(O)cc2)C(=O)N1n1c(-c2ccccc2)nc2ccccc2c1=O	> 100 µM (inactive)	> 100 µM (inactive)	> 100 µM (inactive)	> 100 µM (inactive)	> 100 µM (inactive)	> 100 µM (inactive)	> 100 µM (inactive)	> 100 µM (inactive)	> 100 µM (inactive)	> 100 µM (inactive)	> 100 µM (inactive)	> 100 µM (inactive)	> 100 µM (inactive)	> 100 µM (inactive)	> 100 µM (inactive)	> 100 µM (inactive)	> 100 µM (inactive)	> 100 µM (inactive)	> 100 µM (inactive)	> 100 µM (inactive)
COc1cc(NCCC2CCCCN2)c2ncccc2c1 (stereo not drawn)	24.8 µM (inactive)	74.5 µM (inactive)	27.3 µM (inactive)	> 96.4 µM (inactive)	39.7 µM (inactive)	25.1 µM (inactive)	53.2 µM (inactive)	7.11 µM (inactive)	25.1 µM (inactive)	57.1 µM (inactive)	> 77.1 µM (inactive)	> 96.6 µM (inactive)	3.56 µM (inactive)	55.7 µM (inactive)	34.8 µM (inactive)	> 92.7 µM (inactive)	36 µM (inactive)	21.5 µM (inactive)	> 96.4 µM (inactive)	> 48.3 µM (inactive)
O=C1C=C(c2ccccc2)O/C1=C/C(=O)c1ccc(Cl)cc1	14 µM (inactive)	14.2 µM (inactive)	2.93 µM (inactive)	30.5 µM (inactive)	20.2 µM (inactive)	16.7 µM (inactive)	23.4 µM (inactive)	2.85 µM (inactive)	3.35 µM (inactive)	23.3 µM (inactive)	14 µM (inactive)	–	1.66 µM (inactive)	11.1 µM (inactive)	17.2 µM (inactive)	23.9 µM (inactive)	16.4 µM (inactive)	19 µM (inactive)	22.1 µM (inactive)	3.33 µM (inactive)
CC1OC(c2ccc3c(c2O)C(=O)C2=C(C3=O)C3(O)C(=O)CC(C)(O)CC3(O)C=C2)CC(O)C1O (stereo not drawn)	14.9 µM (inactive)	23.3 µM (inactive)	10.2 µM (inactive)	26.8 µM (inactive)	24.2 µM (inactive)	11 µM (inactive)	18.2 µM (inactive)	3.81 µM (inactive)	2.05 µM (inactive)	17.1 µM (inactive)	7.28 µM (inactive)	26.3 µM (inactive)	1.98 µM (inactive)	2.34 µM (inactive)	2.25 µM (inactive)	21.2 µM (inactive)	5.26 µM (inactive)	16.1 µM (inactive)	20.1 µM (inactive)	9.73 µM (inactive)
CN(C)C(Cc1c[nH]cn1)C(=O)N1CCCC1C(N)=O (stereo not drawn)	> 100 µM (inactive)	> 100 µM (inactive)	> 100 µM (inactive)	> 100 µM (inactive)	> 100 µM (inactive)	> 100 µM (inactive)	22.9 µM (inactive)	> 100 µM (inactive)	> 100 µM (inactive)	> 100 µM (inactive)	> 100 µM (inactive)	> 100 µM (inactive)	> 100 µM (inactive)	> 100 µM (inactive)	> 100 µM (inactive)	> 100 µM (inactive)	> 100 µM (inactive)	> 100 µM (inactive)	> 100 µM (inactive)	> 100 µM (inactive)
COc1ccc(S(=O)(=O)O)cc1-n1nc(C(=O)Nc2ccccc2)n[n+]1-c1cc(S(=O)(=O)[O-])ccc1OC	> 100 µM (inactive)	> 100 µM (inactive)	> 100 µM (inactive)	> 100 µM (inactive)	> 100 µM (inactive)	> 100 µM (inactive)	> 100 µM (inactive)	> 100 µM (inactive)	> 100 µM (inactive)	> 100 µM (inactive)	> 100 µM (inactive)	> 100 µM (inactive)	> 100 µM (inactive)	> 100 µM (inactive)	> 100 µM (inactive)	> 100 µM (inactive)	> 100 µM (inactive)	> 100 µM (inactive)	> 100 µM (inactive)	> 100 µM (inactive)
CCN(CC)CCNc1ccc2ncn3c4c(OC)ccc(O)c4c(=O)c1c23	35.7 µM (inactive)	10.9 µM (inactive)	1.63 µM (inactive)	15.4 µM (inactive)	0.764 µM (active)	9.51 µM (inactive)	10 µM (inactive)	0.625 µM (active)	4.12 µM (inactive)	33.7 µM (inactive)	32.1 µM (inactive)	2.86 µM (inactive)	30.8 µM (inactive)	1.41 µM (inactive)	13.7 µM (inactive)	6.49 µM (inactive)	1.16 µM (inactive)	13.6 µM (inactive)	92.5 µM (inactive)	4.21 µM (inactive)
